Experimental data: patent publication EP3409266A1, “ACTIVE INGREDIENT COMBINATIONS OF GLYCERYL GLUCOSIDES AND ONE OR MORE MILD SURFACTANTS” (Beiersdorf AG, priority 2010, dated 2012)

Key:
Kalbserythrozyten [1] = test: RBC test: haemolysis (release of haemoglobin, H50); assay type: cell-based, Kalb; settings: 10 min
From the text: (§1) Der Standard RBC-Test dient zur Abschätzung von in-vivo Augenschleimhautreizpotentialen von Tensiden und tensidhaltigen Produkten. Das Verfahren beruht auf der Tatsache, dass Tenside stark mit Zellmembranen und Proteinen interagieren. Beide Effekte werden photometrisch durch Analyse des natürlichen Blutfarbstoffs Oxyhämoglobin ([…]) bestimmt. Im Gegensatz zu anderen zellbasierten Systemen ist der RBC-Test in der Lage zwischen Schädigungen der Zellmembran (Hämolyse) und Proteindenaturierung (Denaturierungsindex) zu differenzieren.
Ein definiertes Aliquot isolierter Kalbserythrozyten wird mit einer Reihe steigender Konzentrationen des zu untersuchenden Musters (Stammlösung für Rohstoffe 0,1 Gew.-% Aktivgehalt der waschaktiven Substanz in PBS; Stammlösung für Fertigprodukte 1:100 w/v in PBS) für 10 Minuten unter Schütteln bei RT inkubiert. PBS ist ein üblicher Standard-PhosphatPuffer (pH 7,4) mit folgender Zusammensetzung:
Die Inkubationsperiode wird durch schnelle Hochgeschwindigkeitszentrifugation beendet. Nach Zentrifugation werden die gewonnenen Überstände photometrisch auf ihren Gehalt an freigesetztem Hämoglobin (HbO2) bei 530 nm analysiert. Daraus wird der relative Hämolysegrad berechnet und die Konzentrations-Response-Kurve mit dem H50-Wert [µl/ml] als Kenngröße bestimmt. Dieser gibt die Konzentration des Prüfmusters an, bei der 50% des Hämoglobins freigesetzt werden. Je höher der Wert, desto verträglicher ist das untersuchte Muster.

HbO2 = target: T1, HbO2 (Bos taurus, UniProt P01966+P02070); test: RBC test: HbO2 denaturation (denaturation index DI); assay type: cell-based; settings: raw material 0,1 Gew.-% active content in PBS, 10 min, RT; 100% standard Natriumlaurylsulfat; lower = better tolerated
T1 construct: wird im Vergleich zum nativen HbO2 gemessen; endogenous in cells; host or cells: isolated calf erythrocytes (Kalbserythrozyten)
T1 sequence (P01966 2-142 limits assumed): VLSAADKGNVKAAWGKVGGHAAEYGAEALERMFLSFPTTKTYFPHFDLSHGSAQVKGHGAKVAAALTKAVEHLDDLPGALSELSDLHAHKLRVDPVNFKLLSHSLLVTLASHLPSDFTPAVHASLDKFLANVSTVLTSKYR
T1 sequence (P02070 whole entry): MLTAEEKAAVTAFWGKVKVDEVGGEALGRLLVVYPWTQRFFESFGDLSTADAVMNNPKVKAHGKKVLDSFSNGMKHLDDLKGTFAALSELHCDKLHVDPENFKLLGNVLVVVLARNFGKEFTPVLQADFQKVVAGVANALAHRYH
From the text: as §1
Ein definiertes Aliquot isolierter Kalbserythrozyten wird mit einer fixen Konzentration des Prüfmusters (Konzentration für Rohstoffe 0,1 Gew.-% Aktivgehalt der waschaktiven Substanz in PBS; Konzentration für Fertigprodukte 1% w/v in PBS) für 10 Minuten unter Schütteln bei RT inkubiert und dann zentrifugiert. Die Änderung der spektralen Absorption bei 575 nm und 540 nm wird im Vergleich zum nativen HbO2 gemessen. Aus dem Verhältnis der Absorptionswerte zueinander wird der Denaturierungsindex DI [%] berechnet. Als 100%-Standard dient Natriumlaurylsulfat (0,1% Aktivgehalt).
Je geringer der Wert, desto verträglicher ist das untersuchte Muster.

Kalbserythrozyten [2] = assay type: cell-based, Kalb
From the text: Die Milde eines Tensides oder Tensidsystems lässt sich durch die Bestimmung der Quotienten aus Hämolysewert und Denaturierungsindex charakterisieren. Der Quotient L/D repräsentiert das Verhältnis von Hämolysewert (L) zu Denaturierungsindex (D) und wird durch den Standard RBC-Test bestimmt.
as §1
Der Quotient (L/D-Wert) stellt das Verhältnis der Kenngrößen von Hämolyse (H50) und Denaturierung (DI) dar und wird zur Charakterisierung und Klassifizierung der untersuchten Prüfmuster verwendet.
Tenside oder Tensidmischungen werden erfindungsgemäß als mild angesehen, wenn der L/D-Wert mindestens 1 beträgt. Zum Vergleich dazu hat das häufig in Reinigungsprodukten eingesetzte Natriumlaurylethersulfat einen L/D-Wert von ca. 0,3 und wird als reizend klassifiziert. Sofern in einer Tensidmischung Natriumlaurylethersulfat eingesetzt wird, hat die resultierende Tensidmischung erfindungsgemäß einen L/D-Wert von mindestens 1.

For Dinatriumcocoamphodiacetat, the H50 (Kalbserythrozyten [1]; bovine, pH 7.4) was 36,4 µl/ml, the DI (HbO2) was 1,5% and the L/D (Kalbserythrozyten [2]) was 24.

For Decylglucosid, the H50 (Kalbserythrozyten [1]; bovine, pH 7.4) was 127,7 µl/ml, the DI (HbO2) was 3,9% and the L/D (Kalbserythrozyten [2]) was 33,4.

With Dinatriumcocoylglutamat the H50 (Kalbserythrozyten [1]; bovine, pH 7.4) was 136,6 µl/ml, the DI (HbO2) was 77,9% and the L/D (Kalbserythrozyten [2]) was 1,75.

For Dinatriumlaurylethersulfosuccinat, the H50 (Kalbserythrozyten [1]; bovine, pH 7.4) was 167,7 µl/ml, the DI (HbO2) was 40,4% and the L/D (Kalbserythrozyten [2]) was 4,15.

In the case of Natriumcocoamphoacetat, the H50 (Kalbserythrozyten [1]; bovine, pH 7.4) is reported as 26 µl/ml, the DI (HbO2) is reported as 1% and the L/D (Kalbserythrozyten [2]) is reported as 26.

With `CCCCCCCCCCCC(=O)N(C)CC(=O)O` [Natriumlauroylsarcosinat] the H50 (Kalbserythrozyten [1]; raw material, stock 0,1 Gew.-% active content in PBS, RT, higher = better tolerated) was 458 µl/ml, the DI (HbO2) was 58,4% and the L/D (Kalbserythrozyten [2]) was 7,84.

With Cocamidopropylbetain the H50 (Kalbserythrozyten [1]; bovine, pH 7.4) was 56,1 µl/ml, the DI (HbO2) was 2,6% and the L/D (Kalbserythrozyten [2]) was 21,65.

With PEG-7 Glycerylcocoat the H50 (Kalbserythrozyten [1]; bovine, pH 7.4) was 115,2 µl/ml, the DI (HbO2) was 4,9% and the L/D (Kalbserythrozyten [2]) was 23,5.

For Laurylglucosid, the H50 (Kalbserythrozyten [1]; bovine, pH 7.4) was 84,1 µl/ml, the DI (HbO2) was 3,2% and the L/D (Kalbserythrozyten [2]) was 20,4.

In the case of “Dinatrium PEG-5 Laurylcitratsulfosuccinat”, the H50 (Kalbserythrozyten [1]; bovine, pH 7.4) is reported as 645 µl/ml, the DI (HbO2) is reported as 5,5% and the L/D (Kalbserythrozyten [2]) is reported as 117.

`CCCCCCCCCCCC(=O)NC(CCC(=O)O)C(=O)O` (centres unmarked) [Natriumlauroylglutamat] was tested, and the H50 (Kalbserythrozyten [1]; bovine, pH 7.4) was 312,3 µl/ml, the DI (HbO2) was 10,5% and the L/D (Kalbserythrozyten [2]) was 29,9.

“Natriumlaurylethersulfat [reference compound]” was tested, and the “Klassifizierung nach L/D-Wert” value (Kalbserythrozyten [2]) was “reizend” and the L/D (Kalbserythrozyten [2]) was “ca. 0,3”.
